Literature values as cited in patent US9861587B2, “Composition and method for treating ketosis in cows” (RP FEED COMPONENTS, LLC, priority 2011, dated 2018).

What was measured:
ketotic cows = settings: two ketotic cows; daily injections or oral administration of 12.5 g
bovine ketosis = settings: oral administration
[1] = test system: cases of clinical ketosis; settings: six cases; orally 40 g once daily for seven days; 21-day examination period

## CSCCC(N)C(=O)O (racemic) [DL-methionine]
Ketotic cows
  treatment of ketosis: unsuccessful treatment

## DL-α-hydroxy-γ-methylmercaptobutyrate calcium [methionine hydroxy analog (MHA)]
Bovine ketosis
  symptoms of bovine ketosis: aided in alleviating symptoms of bovine ketosis
[1]
  serum ketone levels: fell slowly over a 21-day examination period, but never returned to normal levels
